The values below are quoted from earlier work in patent US8415273B2, “Broadleaf perennial weed control agent for grass, and method for controlling broadleaf perennial weeds in grass” (Nippon Soda Co., Ltd., priority 2007, dated 2013).

Each structure is given as a SMILES string.

Series [1] concerns turf grasses such as Zoysia japonica and Zoysia tenuifolia. To be noted: soil-based herbicide.
Series [2] deals with broadleaf annual weeds such as chickweed and gramineous weeds such as crabgrass.

In the case of `NC(=O)c1nc(-c2ccccc2)n(-c2ccc(Cl)c(COCC(F)(F)C(F)(F)F)c2)n1` [flupoxam, 1-[4-chloro-3-[(2,2,3,3,3-pentafluoropropoxy)methyl]phenyl]-5-phenyl-1H-1,2,4-triazole-3-carboxamide], the “Detrimental effects on turf grasses” value in series [1] is reported as “no detrimental effects”. In addition, in series [2], the “Control action on annual weeds in grass” value is given as “powerful control action”.
